# Laboratory results: paper doi:10.1101/2022.06.02.494630v1 (biorxiv, 2022)
# Assays:
# PfPHB1 = PfPHB1 (Plasmodium falciparum, UniProt Q8IBC3); assay: biochemical
# PfPHB2 = PfPHB2 (Plasmodium falciparum, UniProt Q8IJP8); assay: biochemical
# Sequence of PfPHB2 (Q8IJP8 1-304): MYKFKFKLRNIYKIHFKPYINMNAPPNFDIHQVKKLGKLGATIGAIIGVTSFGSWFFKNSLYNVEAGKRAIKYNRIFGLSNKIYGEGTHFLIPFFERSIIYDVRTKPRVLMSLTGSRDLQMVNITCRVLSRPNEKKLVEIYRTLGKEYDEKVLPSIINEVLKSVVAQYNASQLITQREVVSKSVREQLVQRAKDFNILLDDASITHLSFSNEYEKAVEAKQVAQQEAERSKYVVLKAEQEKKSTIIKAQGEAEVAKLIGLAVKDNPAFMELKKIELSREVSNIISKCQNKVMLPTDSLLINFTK
# Sequence of PfPHB1 (Q8IBC3 1-272): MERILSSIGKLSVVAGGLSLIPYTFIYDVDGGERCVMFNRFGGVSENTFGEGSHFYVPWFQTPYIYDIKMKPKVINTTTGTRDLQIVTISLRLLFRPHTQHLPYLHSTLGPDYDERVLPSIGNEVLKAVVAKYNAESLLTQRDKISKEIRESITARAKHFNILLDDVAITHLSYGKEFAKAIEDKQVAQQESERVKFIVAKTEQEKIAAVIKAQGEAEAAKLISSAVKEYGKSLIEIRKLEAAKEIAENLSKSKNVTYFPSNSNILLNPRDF
smiles,measurement,setting,value
COc1ccc([C@@]23Oc4cc(OC)cc(OC)c4[C@]2(O)[C@H](O)[C@H](C(=O)N(C)C)[C@H]3c2ccccc2)cc1 [Roc-A],Kd,PfPHB1,1370 ± 600 nM
same,Kd,PfPHB2,683 ± 21 nM
